Measurements from the kinase profiling compilation of Christmann-Franck et al. (2016).

How the values were obtained:
Test in all cases: KINOMEscan competition binding
NEK2 (human) = NEK2 (human) (UniProt P51955); settings: compound 10.0 µM
HIPK2 (human) = HIPK2 (human) (UniProt Q9H2X6); settings: compound 10.0 µM
RIOK1 (human) = RIOK1 (human) (UniProt Q9BRS2); settings: compound 10.0 µM
STK32C (human) = STK32C (human) (UniProt Q86UX6); settings: compound 10.0 µM
PAK4 (human) = PAK4 (human) (UniProt O96013); settings: compound 10.0 µM
CSNK1G2 (human) = CSNK1G2 (human) (UniProt P78368); settings: compound 10.0 µM
PAK6 (human) = PAK6 (human) (UniProt Q9NQU5); settings: compound 10.0 µM
EPHB6 (human) = EPHB6 (human) (UniProt O15197); settings: compound 10.0 µM
SBK1 (human) = SBK1 (human) (UniProt Q52WX2); settings: compound 10.0 µM
EIF2AK2 (human) = EIF2AK2 (human) (UniProt P19525); settings: compound 10.0 µM
Chain of EIF2AK2 (human) (P19525 whole entry, looked up): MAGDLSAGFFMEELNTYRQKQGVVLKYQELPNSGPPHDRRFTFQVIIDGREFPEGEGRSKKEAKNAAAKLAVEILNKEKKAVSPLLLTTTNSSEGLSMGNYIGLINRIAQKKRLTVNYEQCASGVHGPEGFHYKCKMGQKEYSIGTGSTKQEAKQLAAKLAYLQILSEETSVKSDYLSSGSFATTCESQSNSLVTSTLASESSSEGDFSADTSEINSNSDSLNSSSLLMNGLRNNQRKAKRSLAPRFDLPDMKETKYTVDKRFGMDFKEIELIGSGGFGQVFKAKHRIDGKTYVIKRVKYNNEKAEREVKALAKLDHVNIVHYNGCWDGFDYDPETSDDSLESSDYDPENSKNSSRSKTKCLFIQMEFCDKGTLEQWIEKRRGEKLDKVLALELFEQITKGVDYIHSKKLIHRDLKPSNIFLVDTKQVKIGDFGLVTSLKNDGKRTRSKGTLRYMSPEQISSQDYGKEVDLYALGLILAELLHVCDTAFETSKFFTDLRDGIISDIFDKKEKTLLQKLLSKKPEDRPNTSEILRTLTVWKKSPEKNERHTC

FGR (human) = FGR (human) (UniProt P09769); settings: compound 10.0 µM
NEK6 (human) = NEK6 (human) (UniProt Q9HC98); settings: compound 10.0 µM
FYN (human) = FYN (human) (UniProt P06241); settings: compound 10.0 µM
PIK3CB (human) = PIK3CB (human) (UniProt P42338); settings: compound 10.0 µM
AURKA (human) = AURKA (human) (UniProt O14965)
Chain of AURKA (human) (O14965 whole entry, looked up): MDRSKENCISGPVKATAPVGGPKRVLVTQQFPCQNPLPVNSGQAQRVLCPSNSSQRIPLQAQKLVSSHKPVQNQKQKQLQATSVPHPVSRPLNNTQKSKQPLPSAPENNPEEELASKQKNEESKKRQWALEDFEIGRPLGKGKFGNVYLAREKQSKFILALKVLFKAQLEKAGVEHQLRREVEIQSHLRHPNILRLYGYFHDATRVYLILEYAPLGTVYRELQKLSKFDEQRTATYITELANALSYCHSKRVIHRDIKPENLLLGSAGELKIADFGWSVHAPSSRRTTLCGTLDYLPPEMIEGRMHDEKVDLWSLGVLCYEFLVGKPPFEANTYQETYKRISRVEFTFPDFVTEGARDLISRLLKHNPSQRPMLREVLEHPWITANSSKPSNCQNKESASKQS

LATS1 (human) = LATS1 (human) (UniProt O95835); settings: compound 10.0 µM
ERBB2 (human) = ERBB2 (human) (UniProt P04626); settings: compound 10.0 µM
RIPK2 (human) = RIPK2 (human) (UniProt O43353); settings: compound 10.0 µM
[1] = test system: FLT3 (human), P36888 [D835H]; settings: compound 10.0 µM
MERTK (human) = MERTK (human) (UniProt Q12866); settings: compound 10.0 µM
RPS6KA1 KD1 (human) = RPS6KA1 KD1 (human) (UniProt Q15418); settings: compound 10.0 µM
MAP2K4 (human) = MAP2K4 (human) (UniProt P45985); settings: compound 10.0 µM
CDK15 (human) = CDK15 (human) (UniProt Q96Q40); settings: compound 10.0 µM
MAP4K2 (human) = MAP4K2 (human) (UniProt Q12851); settings: compound 10.0 µM
NEK1 (human) = NEK1 (human) (UniProt Q96PY6); settings: compound 10.0 µM
[2] = test system: PIK3CA (human), P42336 [I800L]; settings: compound 10.0 µM
ACVR2B (human) = ACVR2B (human) (UniProt Q13705); settings: compound 10.0 µM
RPS6KA2 KD2 (human) = RPS6KA2 KD2 (human) (UniProt Q15349)
Chain of RPS6KA2 KD2 (human) (Q15349 whole entry, looked up): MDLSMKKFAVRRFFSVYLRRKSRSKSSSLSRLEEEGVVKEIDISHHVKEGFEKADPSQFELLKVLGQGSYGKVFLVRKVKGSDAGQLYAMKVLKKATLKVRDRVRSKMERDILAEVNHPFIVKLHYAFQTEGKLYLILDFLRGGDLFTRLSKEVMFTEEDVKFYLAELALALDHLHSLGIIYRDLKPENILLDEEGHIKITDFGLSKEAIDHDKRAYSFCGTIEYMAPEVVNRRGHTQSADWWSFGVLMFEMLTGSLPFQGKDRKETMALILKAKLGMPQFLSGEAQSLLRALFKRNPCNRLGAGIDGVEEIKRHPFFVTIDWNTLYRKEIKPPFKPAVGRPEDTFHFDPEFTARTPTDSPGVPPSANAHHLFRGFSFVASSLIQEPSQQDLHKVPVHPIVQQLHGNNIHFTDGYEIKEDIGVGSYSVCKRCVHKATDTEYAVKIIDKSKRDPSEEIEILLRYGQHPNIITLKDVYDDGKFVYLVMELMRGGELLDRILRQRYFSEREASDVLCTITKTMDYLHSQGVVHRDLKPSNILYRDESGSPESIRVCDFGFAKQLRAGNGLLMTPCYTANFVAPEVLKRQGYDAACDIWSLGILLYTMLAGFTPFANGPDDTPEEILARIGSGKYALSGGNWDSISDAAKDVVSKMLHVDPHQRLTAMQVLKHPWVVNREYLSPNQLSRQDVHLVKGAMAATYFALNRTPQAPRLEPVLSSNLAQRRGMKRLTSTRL

MAP4K1 (human) = MAP4K1 (human) (UniProt Q92918); settings: compound 10.0 µM
[3] = test system: KIT (human), P10721 [D816V]; settings: compound 10.0 µM
AKT2 (human) = AKT2 (human) (UniProt P31751); settings: compound 10.0 µM
FLT1 (human) = FLT1 (human) (UniProt P17948); settings: compound 10.0 µM
Chain of FLT1 (human) (P17948 whole entry, looked up): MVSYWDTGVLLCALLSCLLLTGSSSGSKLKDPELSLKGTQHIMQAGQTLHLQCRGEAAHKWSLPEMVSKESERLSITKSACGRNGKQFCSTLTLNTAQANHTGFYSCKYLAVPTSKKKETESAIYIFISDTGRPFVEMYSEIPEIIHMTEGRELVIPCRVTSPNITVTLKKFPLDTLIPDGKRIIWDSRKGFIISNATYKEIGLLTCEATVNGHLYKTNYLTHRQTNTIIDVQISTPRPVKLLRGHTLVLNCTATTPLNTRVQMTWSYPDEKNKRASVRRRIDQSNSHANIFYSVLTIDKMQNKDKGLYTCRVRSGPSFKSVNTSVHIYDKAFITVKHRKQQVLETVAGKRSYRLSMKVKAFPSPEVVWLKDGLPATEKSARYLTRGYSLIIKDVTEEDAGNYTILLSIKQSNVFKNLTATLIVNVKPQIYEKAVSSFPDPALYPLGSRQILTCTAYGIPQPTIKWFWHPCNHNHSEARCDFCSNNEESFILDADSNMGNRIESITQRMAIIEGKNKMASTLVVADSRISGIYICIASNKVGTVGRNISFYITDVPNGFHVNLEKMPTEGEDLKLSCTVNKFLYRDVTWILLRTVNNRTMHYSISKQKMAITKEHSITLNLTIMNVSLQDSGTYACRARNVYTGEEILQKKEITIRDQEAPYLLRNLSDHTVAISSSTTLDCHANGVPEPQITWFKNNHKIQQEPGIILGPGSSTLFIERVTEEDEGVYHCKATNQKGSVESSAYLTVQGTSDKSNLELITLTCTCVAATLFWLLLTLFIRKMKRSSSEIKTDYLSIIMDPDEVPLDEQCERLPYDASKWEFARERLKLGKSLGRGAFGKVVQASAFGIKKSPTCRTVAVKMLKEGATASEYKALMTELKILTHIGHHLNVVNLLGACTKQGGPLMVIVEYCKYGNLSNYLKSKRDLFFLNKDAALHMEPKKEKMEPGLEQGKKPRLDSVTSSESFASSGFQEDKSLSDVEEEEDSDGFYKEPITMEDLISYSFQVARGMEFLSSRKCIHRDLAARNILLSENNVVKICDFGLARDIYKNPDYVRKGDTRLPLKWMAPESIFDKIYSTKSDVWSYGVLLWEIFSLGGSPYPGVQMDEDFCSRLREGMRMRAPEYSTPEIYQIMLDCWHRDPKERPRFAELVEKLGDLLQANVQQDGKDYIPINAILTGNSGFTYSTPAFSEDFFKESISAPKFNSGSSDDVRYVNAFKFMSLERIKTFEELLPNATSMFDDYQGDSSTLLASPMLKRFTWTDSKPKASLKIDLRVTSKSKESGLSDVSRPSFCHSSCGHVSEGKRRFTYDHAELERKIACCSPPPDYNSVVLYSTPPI

DDR2 (human) = DDR2 (human) (UniProt Q16832); settings: compound 10.0 µM
Chain of DDR2 (human) (Q16832 whole entry, looked up): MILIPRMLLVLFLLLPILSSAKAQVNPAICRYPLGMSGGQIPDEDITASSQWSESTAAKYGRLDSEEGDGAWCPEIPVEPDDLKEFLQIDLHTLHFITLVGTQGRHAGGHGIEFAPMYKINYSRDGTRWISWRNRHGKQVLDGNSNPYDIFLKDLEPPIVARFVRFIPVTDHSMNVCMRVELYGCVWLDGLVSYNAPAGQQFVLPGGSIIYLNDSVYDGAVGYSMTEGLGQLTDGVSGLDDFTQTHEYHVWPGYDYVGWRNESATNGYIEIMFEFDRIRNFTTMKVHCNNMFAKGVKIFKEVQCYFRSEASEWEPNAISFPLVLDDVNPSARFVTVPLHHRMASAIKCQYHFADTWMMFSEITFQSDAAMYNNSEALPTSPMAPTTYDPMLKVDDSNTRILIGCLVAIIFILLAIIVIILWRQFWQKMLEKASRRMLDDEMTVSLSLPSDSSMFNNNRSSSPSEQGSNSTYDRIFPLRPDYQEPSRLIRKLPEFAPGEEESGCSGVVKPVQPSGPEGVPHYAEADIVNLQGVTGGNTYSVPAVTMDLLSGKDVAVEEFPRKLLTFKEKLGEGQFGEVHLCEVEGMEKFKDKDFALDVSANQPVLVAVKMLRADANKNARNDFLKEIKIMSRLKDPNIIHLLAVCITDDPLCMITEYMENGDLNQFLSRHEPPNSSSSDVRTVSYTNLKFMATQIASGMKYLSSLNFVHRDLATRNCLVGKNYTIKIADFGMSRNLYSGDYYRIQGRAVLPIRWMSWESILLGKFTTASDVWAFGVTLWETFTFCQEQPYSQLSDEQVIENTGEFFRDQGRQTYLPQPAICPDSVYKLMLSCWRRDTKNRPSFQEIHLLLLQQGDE

PAK7 (human) = PAK7 (human) (UniProt Q9P286); settings: compound 10.0 µM
TGFBR2 (human) = TGFBR2 (human) (UniProt P37173); settings: compound 10.0 µM
EPHB3 (human) = EPHB3 (human) (UniProt P54753); settings: compound 10.0 µM
MAP3K3 (human) = MAP3K3 (human) (UniProt Q99759); settings: compound 10.0 µM
Chain of MAP3K3 (human) (Q99759 whole entry, looked up): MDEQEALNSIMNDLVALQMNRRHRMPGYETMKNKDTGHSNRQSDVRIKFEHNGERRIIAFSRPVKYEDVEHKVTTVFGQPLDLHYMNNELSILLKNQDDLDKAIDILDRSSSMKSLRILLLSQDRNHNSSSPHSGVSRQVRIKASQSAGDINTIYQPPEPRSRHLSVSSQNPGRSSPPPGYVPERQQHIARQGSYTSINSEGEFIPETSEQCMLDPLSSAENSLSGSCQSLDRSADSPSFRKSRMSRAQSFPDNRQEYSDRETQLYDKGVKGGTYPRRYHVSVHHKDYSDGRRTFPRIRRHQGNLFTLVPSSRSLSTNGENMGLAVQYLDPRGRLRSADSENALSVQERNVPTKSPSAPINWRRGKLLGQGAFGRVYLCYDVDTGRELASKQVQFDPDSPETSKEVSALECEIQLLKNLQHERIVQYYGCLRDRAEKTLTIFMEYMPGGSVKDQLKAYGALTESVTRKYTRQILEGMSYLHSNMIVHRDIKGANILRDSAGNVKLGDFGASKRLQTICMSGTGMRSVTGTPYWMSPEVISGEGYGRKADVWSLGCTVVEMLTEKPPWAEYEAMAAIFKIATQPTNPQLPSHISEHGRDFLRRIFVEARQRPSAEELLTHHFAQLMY

MAP4K3 (human) = MAP4K3 (human) (UniProt Q8IVH8); settings: compound 10.0 µM
TBK1 (human) = TBK1 (human) (UniProt Q9UHD2); settings: compound 10.0 µM
BRAF (human) = BRAF (human) (UniProt P15056); settings: compound 10.0 µM
SRPK1 (human) = SRPK1 (human) (UniProt Q96SB4); settings: compound 10.0 µM

Chain of STK32C (human) (Q86UX6 whole entry, looked up): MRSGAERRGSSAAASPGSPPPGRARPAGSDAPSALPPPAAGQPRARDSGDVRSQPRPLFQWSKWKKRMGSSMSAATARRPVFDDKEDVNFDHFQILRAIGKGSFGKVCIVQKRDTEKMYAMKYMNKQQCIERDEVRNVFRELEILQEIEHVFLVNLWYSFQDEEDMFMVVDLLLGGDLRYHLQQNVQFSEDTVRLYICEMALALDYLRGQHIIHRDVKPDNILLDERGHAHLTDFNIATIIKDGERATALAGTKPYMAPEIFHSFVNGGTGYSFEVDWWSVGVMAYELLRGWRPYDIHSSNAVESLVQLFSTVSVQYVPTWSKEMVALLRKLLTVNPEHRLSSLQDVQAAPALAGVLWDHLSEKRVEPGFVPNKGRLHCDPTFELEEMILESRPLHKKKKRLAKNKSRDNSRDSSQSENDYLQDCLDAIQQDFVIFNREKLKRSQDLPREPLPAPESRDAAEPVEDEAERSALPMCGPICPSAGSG

COc1cc(C(=O)N2CCC(N3CCN(C)CC3)CC2)ccc1Nc1ncc2c(n1)N(C)c1ccccc1C(=O)N2C
kinase still bound, per cent of control (NEK2 (human)): 100% | kinase still bound, per cent of control (HIPK2 (human)): 88% | kinase still bound, per cent of control (RIOK1 (human)): 100% | kinase still bound, per cent of control (STK32C (human)): 100% | kinase still bound, per cent of control (PAK4 (human)): 94% | kinase still bound, per cent of control (CSNK1G2 (human)): 100% | kinase still bound, per cent of control (PAK6 (human)): 98% | kinase still bound, per cent of control (EPHB6 (human)): 31% | kinase still bound, per cent of control (SBK1 (human)): 100% | kinase still bound, per cent of control (EIF2AK2 (human)): 84% | kinase still bound, per cent of control (FGR (human)): 84% | kinase still bound, per cent of control (NEK6 (human)): 76% | kinase still bound, per cent of control (FYN (human)): 100% | kinase still bound, per cent of control (PIK3CB (human)): 96% | Kd (AURKA (human)): 1.6 µM | kinase still bound, per cent of control (AURKA (human); compound 10.0 µM): 1.2% | kinase still bound, per cent of control (LATS1 (human)): 100% | kinase still bound, per cent of control (ERBB2 (human)): 100% | kinase still bound, per cent of control (RIPK2 (human)): 100% | kinase still bound, per cent of control [1]: 100% | kinase still bound, per cent of control (MERTK (human)): 100% | kinase still bound, per cent of control (RPS6KA1 KD1 (human)): 73% | kinase still bound, per cent of control (MAP2K4 (human)): 100% | residual activity (CDK15 (human)): 100% | kinase still bound, per cent of control (MAP4K2 (human)): 100% | kinase still bound, per cent of control (NEK1 (human)): 83% | kinase still bound, per cent of control [2]: 38% | kinase still bound, per cent of control (ACVR2B (human)): 100% | Kd (RPS6KA2 KD2 (human)): 1 µM | kinase still bound, per cent of control (RPS6KA2 KD2 (human); compound 10.0 µM): 7.5% | kinase still bound, per cent of control (MAP4K1 (human)): 100% | kinase still bound, per cent of control [3]: 72% | kinase still bound, per cent of control (AKT2 (human)): 100% | kinase still bound, per cent of control (FLT1 (human)): 100% | kinase still bound, per cent of control (DDR2 (human)): 100% | kinase still bound, per cent of control (PAK7 (human)): 96% | kinase still bound, per cent of control (TGFBR2 (human)): 100% | kinase still bound, per cent of control (EPHB3 (human)): 100% | kinase still bound, per cent of control (MAP3K3 (human)): 97% | kinase still bound, per cent of control (MAP4K3 (human)): 71% | kinase still bound, per cent of control (TBK1 (human)): 97% | kinase still bound, per cent of control (BRAF (human)): 81% | kinase still bound, per cent of control (SRPK1 (human)): 94%
